# Results reported in ChEMBL document CHEMBL3804813, “Discovery and optimization of new benzofuran derivatives against p53-independent malignant cancer cells through inhibition of HIF-1 pathway” (Bioorg Med Chem Lett, 2016).
# Assays:
# [1] = target: Hypoxia-inducible factor 1-alpha (Homo sapiens) (UniProt Q16665); test: Inhibition of HIF-1 (unknown origin) expressed in human MCF7 cells co-transfected with hypoxia reporter plasmid p(HRE)3-Luc at 10 uM measured under hypoxia condition after 24 hrs by dual-luciferase reporter assay; assay type: cell-based
# Sequence of Hypoxia-inducible factor 1-alpha (Homo sapiens) (Q16665 whole entry, looked up): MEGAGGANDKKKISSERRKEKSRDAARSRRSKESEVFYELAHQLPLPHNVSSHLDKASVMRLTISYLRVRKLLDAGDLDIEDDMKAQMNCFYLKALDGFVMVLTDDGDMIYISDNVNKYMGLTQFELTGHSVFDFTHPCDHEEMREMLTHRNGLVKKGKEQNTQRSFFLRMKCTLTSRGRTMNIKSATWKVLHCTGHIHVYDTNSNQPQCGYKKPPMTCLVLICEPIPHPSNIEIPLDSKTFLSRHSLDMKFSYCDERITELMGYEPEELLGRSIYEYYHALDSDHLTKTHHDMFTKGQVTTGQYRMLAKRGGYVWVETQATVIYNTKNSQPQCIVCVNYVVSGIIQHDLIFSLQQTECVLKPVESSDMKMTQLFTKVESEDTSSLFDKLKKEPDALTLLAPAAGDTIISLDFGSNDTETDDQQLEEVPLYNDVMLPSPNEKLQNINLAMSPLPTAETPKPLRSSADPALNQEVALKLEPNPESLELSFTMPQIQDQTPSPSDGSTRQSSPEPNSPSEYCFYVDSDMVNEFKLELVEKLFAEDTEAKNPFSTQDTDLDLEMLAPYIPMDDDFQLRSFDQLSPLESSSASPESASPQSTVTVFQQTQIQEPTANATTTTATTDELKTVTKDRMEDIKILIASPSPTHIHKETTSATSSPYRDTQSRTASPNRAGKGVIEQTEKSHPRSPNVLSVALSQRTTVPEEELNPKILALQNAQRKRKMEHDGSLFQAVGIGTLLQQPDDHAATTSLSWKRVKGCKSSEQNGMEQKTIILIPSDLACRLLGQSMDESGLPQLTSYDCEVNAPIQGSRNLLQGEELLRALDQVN
# [2] = Antiproliferative activity against human HCT116 cells expressing wild type p53 assessed as growth inhibition after 72 hrs by MTT assay; assay type: functional, cell-based; settings: HCT-116, 72 h
# [3] = Antiproliferative activity against human p53-null HCT116 cells assessed as growth inhibition after 72 hrs by MTT assay; assay type: functional, cell-based; settings: HCT-116, 72 h
# MCF7 [4] = test: Antiproliferative activity against human MCF7 cells assessed as growth inhibition after 72 hrs by MTT assay; assay type: functional, cell-based; settings: MCF7, 72 h
# [5] = Antiproliferative activity against human MDA-MB-435S cells assessed as growth inhibition after 72 hrs by MTT assay; assay type: functional, cell-based
# MCF7 [6] = test: Cytotoxicity against human MCF7 cells co-transfected with hypoxia reporter plasmid p(HRE)3-Luc at 20 uM; assay type: cell-based; settings: mcf7, 20 µM
smiles,measurement,setting,value
CNCCNC(=O)c1oc2ccc(N(Cc3ccc(Cl)cc3)S(=O)(=O)c3ccc(Cl)cc3)cc2c1C,inhibition,[1],22.2%
same,IC50,[2],1.81 µM
same,IC50,[3],4.03 µM
same,IC50,MCF7 [4],5.67 µM
same,IC50,[5],1.63 µM
same,Activity,MCF7 [6],Toxic
